Source: ChEMBL document CHEMBL1201861, “Genomics of Drug Sensitity in Cancer screening data, Wellcome Trust Sanger Institute”

How the values were obtained:
[1] = tested on: NCI-H1882; test: cells; assay type: functional, cell-based, Homo sapiens; settings: Homo sapiens, NCI-H1882;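 further: growth inhibition of the cell line, determined with a viability assay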
Description: SANGER: Inhibition of human NCI-H1882 cell growth in a cell viability assay.

[2] = tested on: NB7; test: cells; assay type: functional, cell-based, Homo sapiens; settings: Homo sapiens, NB7;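 further: growth inhibition of NB7 cells, read out with a cell viability assay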
Description: SANGER: Inhibition of human NB7 cell growth in a cell viability assay.

[3] = tested on: MONO-MAC-6; test: cells; assay type: functional, cell-based, Homo sapiens; settings: Homo sapiens, MONO-MAC-6;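 further: cell viability assay measuring growth inhibition of human MONO-MAC-6 cells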
Description: SANGER: Inhibition of human MONO-MAC-6 cell growth in a cell viability assay.

[4] = tested on: IMR-5; test: cells; assay type: functional, cell-based, Homo sapiens; settings: Homo sapiens, IMR-5;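 further: growth inhibition of human IMR-5 cells, read out with a cell viability assay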
Description: SANGER: Inhibition of human IMR-5 cell growth in a cell viability assay.

[5] = tested on: LC-1F; test: cells; assay type: functional, cell-based, Homo sapiens; settings: Homo sapiens, LC-1F;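 further: growth inhibition of human LC-1F cells, read out with a cell viability assay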
Description: SANGER: Inhibition of human LC-1F cell growth in a cell viability assay.

[6] = tested on: SIG-M5; test: cells; assay type: functional, cell-based, Homo sapiens; settings: Homo sapiens, SIG-M5;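 further: cell viability assay read-out, measuring how strongly growth of cultured human SIG-M5 cells is inhibited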
Description: SANGER: Inhibition of human SIG-M5 cell growth in a cell viability assay.

[7] = tested on: NCI-H1694; test: cells; assay type: functional, cell-based, Homo sapiens; settings: Homo sapiens, NCI-H1694;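 further: cell viability assay measuring inhibition of growth in human NCI-H1694 cells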
Description: SANGER: Inhibition of human NCI-H1694 cell growth in a cell viability assay.

[8] = tested on: NCI-H345; test: cells; assay type: functional, cell-based, Homo sapiens; settings: Homo sapiens, NCI-H345;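 further: growth inhibition of NCI-H345 cells measured with a cell viability assay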
Description: SANGER: Inhibition of human NCI-H345 cell growth in a cell viability assay.

[9] = tested on: NCCIT; test: SANGER: Inhibition of human NCCIT cell growth in a cell viability assay.; assay type: functional, cell-based; settings: Homo sapiens, NCCIT
[10] = tested on: YT; test: cells; assay type: functional, cell-based, Homo sapiens; settings: Homo sapiens, YT
Description: SANGER: Inhibition of human YT cell growth in a cell viability assay.

[11] = tested on: CA46; test: cells; assay type: functional, cell-based, Homo sapiens; settings: Homo sapiens, CA46;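 further: growth inhibition of human CA46 cells, read out by a cell viability assay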
Description: SANGER: Inhibition of human CA46 cell growth in a cell viability assay.

[12] = tested on: NCI-H716; test: cells; assay type: functional, cell-based, Homo sapiens; settings: Homo sapiens, NCI-H716;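 further: growth inhibition of human NCI-H716 cells, measured by a cell viability assay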
Description: SANGER: Inhibition of human NCI-H716 cell growth in a cell viability assay.

[13] = tested on: WSU-NHL; test: cells; assay type: functional, cell-based, Homo sapiens; settings: Homo sapiens, WSU-NHL;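 further: growth inhibition of human WSU-NHL cells, read out with a cell viability assay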
Description: SANGER: Inhibition of human WSU-NHL cell growth in a cell viability assay.

[14] = tested on: NCI-H1573; test: cells; assay type: functional, cell-based, Homo sapiens; settings: Homo sapiens, NCI-H1573;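 further: growth inhibition of NCI-H1573 cells, read out with a cell viability assay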
Description: SANGER: Inhibition of human NCI-H1573 cell growth in a cell viability assay.

[15] = tested on: SCC-25; test: cells; assay type: functional, cell-based, Homo sapiens; settings: Homo sapiens, SCC-25;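 further: growth inhibition of SCC-25 cells, measured with a cell viability assay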
Description: SANGER: Inhibition of human SCC-25 cell growth in a cell viability assay.

[16] = tested on: OVCAR-5; test: cells; assay type: functional, cell-based, Homo sapiens; settings: Homo sapiens, OVCAR-5;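 further: growth inhibition of human OVCAR-5 cells, read out with a cell viability assay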
Description: SANGER: Inhibition of human OVCAR-5 cell growth in a cell viability assay.

[17] = tested on: Huh-7; test: cells; assay type: functional, cell-based, Homo sapiens; settings: Homo sapiens, Huh-7;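 further: HuH-7 cell growth inhibition, read out with a cell viability assay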
Description: SANGER: Inhibition of human HuH-7 cell growth in a cell viability assay.

[18] = tested on: COLO-741; test: cells; assay type: functional, cell-based, Homo sapiens; settings: Homo sapiens, COLO-741
Description: SANGER: Inhibition of human COLO-741 cell growth in a cell viability assay.

[19] = tested on: A204; test: cells; assay type: functional, cell-based, Homo sapiens; settings: Homo sapiens, A204;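 further: growth inhibition of human A204 cells, read out with a cell viability assay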
Description: SANGER: Inhibition of human A204 cell growth in a cell viability assay.

[20] = tested on: COLO-678; test: cells; assay type: functional, cell-based, Homo sapiens; settings: Homo sapiens, COLO-678
Description: SANGER: Inhibition of human COLO-678 cell growth in a cell viability assay.

[21] = tested on: MDA-MB-453; test: cells; assay type: functional, cell-based, Homo sapiens; settings: Homo sapiens, MDA-MB-453
Description: SANGER: Inhibition of human MDA-MB-453 cell growth in a cell viability assay.

[22] = tested on: SW837; test: cells; assay type: functional, cell-based, Homo sapiens; settings: Homo sapiens, SW837;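 further: growth inhibition of SW837 cells, determined with a cell viability assay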
Description: SANGER: Inhibition of human SW837 cell growth in a cell viability assay.

[23] = tested on: HuO-3N1; test: cells; assay type: functional, cell-based, Homo sapiens; settings: Homo sapiens, HuO-3N1;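 further: cell viability readout used to measure how strongly compounds suppress proliferation of human HuO-3N1 cells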
Description: SANGER: Inhibition of human HuO-3N1 cell growth in a cell viability assay.

[24] = tested on: G-402; test: cells; assay type: functional, cell-based, Homo sapiens; settings: Homo sapiens, G-402
Description: SANGER: Inhibition of human G-402 cell growth in a cell viability assay.

[25] = tested on: KYSE-450; test: cells; assay type: functional, cell-based, Homo sapiens; settings: Homo sapiens, KYSE-450;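 further: cell growth inhibition measured by a viability assay in human KYSE-450 cells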
Description: SANGER: Inhibition of human KYSE-450 cell growth in a cell viability assay.

[26] = tested on: OAW-42; test: cells; assay type: functional, cell-based, Homo sapiens; settings: Homo sapiens, OAW-42;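 further: growth inhibition of OAW-42 cells, read out with a cell viability assay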
Description: SANGER: Inhibition of human OAW-42 cell growth in a cell viability assay.

[27] = tested on: LCLC-97TM1; test: cells; assay type: functional, cell-based, Homo sapiens; settings: Homo sapiens, LCLC-97TM1;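 further: cell viability assay measuring growth inhibition of human LCLC-97TM1 cells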
Description: SANGER: Inhibition of human LCLC-97TM1 cell growth in a cell viability assay.

[28] = tested on: HCC1937; test: cells; assay type: functional, cell-based, Homo sapiens; settings: Homo sapiens, HCC1937;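 further: growth inhibition measured with a cell viability read-out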
Description: SANGER: Inhibition of human HCC1937 cell growth in a cell viability assay.

[29] = tested on: MFE-280; test: cells; assay type: functional, cell-based, Homo sapiens; settings: Homo sapiens, MFE-280;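 further: growth inhibition of MFE-280 cells, determined with a cell viability readout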
Description: SANGER: Inhibition of human MFE-280 cell growth in a cell viability assay.

[30] = tested on: T98G; test: cells; assay type: functional, cell-based, Homo sapiens; settings: Homo sapiens, T98G;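 further: growth inhibition of T98G cells, read out by a cell viability assay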
Description: SANGER: Inhibition of human T98G cell growth in a cell viability assay.

[31] = tested on: NCI-H2347; test: cells; assay type: functional, cell-based, Homo sapiens; settings: Homo sapiens, NCI-H2347;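 further: growth inhibition of the cell line, read out with a cell viability assay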
Description: SANGER: Inhibition of human NCI-H2347 cell growth in a cell viability assay.

[32] = tested on: NCI-H661; test: cells; assay type: functional, cell-based, Homo sapiens; settings: Homo sapiens, NCI-H661;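 further: cell viability assay read-out, IC50 being the concentration that inhibits growth of the cells by half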
Description: SANGER: Inhibition of human NCI-H661 cell growth in a cell viability assay.

[33] = tested on: T84; test: cells; assay type: functional, cell-based, Homo sapiens; settings: Homo sapiens, T84;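 further: growth inhibition measured with a cell viability readout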
Description: SANGER: Inhibition of human T84 cell growth in a cell viability assay.

[34] = tested on: NCI-H2009; test: cells; assay type: functional, cell-based, Homo sapiens; settings: Homo sapiens, NCI-H2009;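 further: cell viability assay measuring inhibition of NCI-H2009 cell growth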
Description: SANGER: Inhibition of human NCI-H2009 cell growth in a cell viability assay.

[35] = tested on: HSC-4; test: cells; assay type: functional, cell-based, Homo sapiens; settings: Homo sapiens, HSC-4;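 further: growth inhibition of human HSC-4 cells, read out with a cell viability assay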
Description: SANGER: Inhibition of human HSC-4 cell growth in a cell viability assay.

[36] = tested on: NCI-H28; test: cells; assay type: functional, cell-based, Homo sapiens; settings: Homo sapiens, NCI-H28;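 further: growth inhibition of human NCI-H28 cells, read out as cell viability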
Description: SANGER: Inhibition of human NCI-H28 cell growth in a cell viability assay.

[37] = tested on: MDA-MB-361; test: cells; assay type: functional, cell-based, Homo sapiens; settings: Homo sapiens, MDA-MB-361
[38] = tested on: MCF7; test: cells; assay type: functional, cell-based, Homo sapiens; settings: Homo sapiens, MCF7;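 further: growth inhibition of human MCF7 cells, read out with a cell viability assay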
Description: SANGER: Inhibition of human MCF7 cell growth in a cell viability assay.

[39] = tested on: NCI-H2342; test: cells; assay type: functional, cell-based, Homo sapiens; settings: Homo sapiens, NCI-H2342;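 further: growth inhibition of the cancer cell line, determined with a cell viability assay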
Description: SANGER: Inhibition of human NCI-H2342 cell growth in a cell viability assay.

[40] = tested on: ACHN; test: cells; assay type: functional, cell-based, Homo sapiens; settings: Homo sapiens, ACHN;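 further: cell viability read-out used to gauge how strongly growth of human ACHN cells is suppressed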
Description: SANGER: Inhibition of human ACHN cell growth in a cell viability assay.

[41] = tested on: CAL-39; test: cells; assay type: functional, cell-based, Homo sapiens; settings: Homo sapiens, CAL-39;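 further: cell viability assay measuring growth inhibition of CAL-39 cells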
Description: SANGER: Inhibition of human CAL-39 cell growth in a cell viability assay.

[42] = tested on: A673; test: cells; assay type: functional, cell-based, Homo sapiens; settings: Homo sapiens, A673;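 further: growth inhibition of human A673 cells, read out through a cell viability assay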
Description: SANGER: Inhibition of human A673 cell growth in a cell viability assay.

[43] = tested on: CP50-MEL-B; test: cells; assay type: functional, cell-based, Homo sapiens; settings: Homo sapiens, CP50-MEL-B;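 further: growth inhibition of the human cell line, measured with a cell viability read-out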
Description: SANGER: Inhibition of human CP50-MEL-B cell growth in a cell viability assay.

[44] = tested on: 639-V; test: cells; assay type: functional, cell-based, Homo sapiens; settings: Homo sapiens, 639-V;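 further: growth inhibition of 639-V cells, read out with a cell viability assay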
Description: SANGER: Inhibition of human 639-V cell growth in a cell viability assay.

[45] = tested on: RT-112; test: cells; assay type: functional, cell-based, Homo sapiens; settings: Homo sapiens, RT-112
Description: SANGER: Inhibition of human RT-112 cell growth in a cell viability assay.

COc1cc(N2CCN(C)CC2)ccc1Nc1ncc2c(n1)N(C)c1ccccc1C(=O)N2C
IC50 [1]: > 8 µM
IC50 [2]: > 8 µM
IC50 [3]: > 8 µM
IC50 [4]: 6.35 µM
IC50 [5]: > 8 µM
IC50 [6]: 5.36 µM
IC50 [7]: > 8 µM
IC50 [8]: > 8 µM
IC50 [9]: 4.15 µM
IC50 [10]: 3.48 µM
IC50 [11]: > 8 µM
IC50 [12]: > 8 µM
IC50 [13]: > 8 µM

Cc1cc([N+](=O)[O-])ccc1NS(=O)(=O)c1cc(Cl)ccc1Cl
IC50 [14]: > 32 µM
IC50 [1]: > 32 µM
IC50 [15]: 10.9 µM
IC50 [16]: 23.6 µM
IC50 [17]: 1.57 µM
IC50 [18]: 4.49 µM
IC50 [19]: 6.09 µM
IC50 [3]: 6.18 µM
IC50 [20]: 10.9 µM
IC50 [4]: 11.2 µM
IC50 [21]: 10.8 µM
IC50 [22]: 4 µM
IC50 [23]: 13.4 µM
IC50 [5]: > 32 µM
IC50 [24]: 4.65 µM
IC50 [25]: 6.37 µM
IC50 [26]: 2.78 µM
IC50 [6]: 3.36 µM
IC50 [7]: 22.8 µM
IC50 [27]: 3.18 µM
IC50 [28]: 6.27 µM
IC50 [29]: 2.77 µM
IC50 [30]: 10.6 µM
IC50 [31]: 5.86 µM
IC50 [32]: 2.82 µM
IC50 [33]: 4.69 µM
IC50 [34]: 2.69 µM
IC50 [35]: 12.2 µM
IC50 [36]: 8.5 µM
IC50 [37]: 3.66 µM
IC50 [8]: 17.8 µM
IC50 [38]: 2.64 µM
IC50 [39]: 4.93 µM
IC50 [40]: 4.6 µM
IC50 [9]: 13.4 µM
IC50 [10]: 1.83 µM
IC50 [11]: 7.16 µM
IC50 [41]: 2.16 µM
IC50 [42]: 3 µM
IC50 [43]: 1.03 µM
IC50 [44]: 1.61 µM
IC50 [12]: > 32 µM
IC50 [45]: 6.11 µM
IC50 [13]: 11.8 µM

OCCCNc1cc(-c2ccnc(Nc3cccc(Cl)c3)n2)ccn1
IC50 [1]: > 0.256 µM
IC50 [2]: > 0.256 µM
IC50 [3]: 0.0859 µM
IC50 [4]: 0.124 µM
IC50 [5]: 0.117 µM
IC50 [6]: 0.0299 µM
IC50 [7]: > 0.256 µM
IC50 [8]: > 0.256 µM
IC50 [9]: 0.0485 µM
IC50 [10]: > 0.256 µM
IC50 [11]: > 0.256 µM
IC50 [12]: > 0.256 µM
IC50 [13]: > 0.256 µM

Oc1ccc2ccccc2c1SSc1c(O)ccc2ccccc12
IC50 [14]: > 32 µM
IC50 [1]: > 32 µM
IC50 [15]: > 32 µM
IC50 [16]: > 32 µM
IC50 [17]: > 32 µM
IC50 [18]: 18 µM
IC50 [19]: > 32 µM
IC50 [3]: > 32 µM
IC50 [20]: > 32 µM
IC50 [4]: > 32 µM
IC50 [21]: > 32 µM
IC50 [22]: > 32 µM
IC50 [23]: > 32 µM
IC50 [5]: > 32 µM
IC50 [24]: > 32 µM
IC50 [25]: > 32 µM
IC50 [26]: > 32 µM
IC50 [6]: 2.1 µM
IC50 [7]: > 32 µM
IC50 [27]: > 32 µM
IC50 [28]: > 32 µM
IC50 [29]: > 32 µM
IC50 [30]: > 32 µM
IC50 [31]: > 32 µM
IC50 [32]: > 32 µM
IC50 [33]: 12.2 µM
IC50 [34]: 5.04 µM
IC50 [35]: > 32 µM
IC50 [36]: > 32 µM
IC50 [37]: > 32 µM
IC50 [8]: > 32 µM
IC50 [38]: 2.18 µM
IC50 [39]: > 32 µM
IC50 [40]: > 32 µM
IC50 [9]: 29.8 µM
IC50 [10]: 1.39 µM
IC50 [11]: 3.66 µM
IC50 [41]: > 32 µM
IC50 [42]: > 32 µM
IC50 [43]: > 32 µM
IC50 [44]: > 32 µM
IC50 [12]: > 32 µM
IC50 [45]: 27.3 µM
IC50 [13]: 5.52 µM

N#Cc1c(O)c2c(-c3ccc(-c4ccccc4O)cc3)csc2[nH]c1=O
IC50 [1]: 0.409 µM
IC50 [15]: > 1.02 µM
IC50 [16]: > 1.02 µM
IC50 [17]: > 1.02 µM
IC50 [18]: > 1.02 µM
IC50 [19]: > 1.02 µM
IC50 [3]: 0.114 µM
IC50 [20]: > 1.02 µM
IC50 [4]: > 1.02 µM
IC50 [21]: > 1.02 µM
IC50 [22]: > 1.02 µM
IC50 [23]: > 1.02 µM
IC50 [5]: > 1.02 µM
IC50 [24]: > 1.02 µM
IC50 [25]: > 1.02 µM
IC50 [26]: > 1.02 µM
IC50 [6]: 0.00786 µM
IC50 [7]: 0.977 µM
IC50 [27]: > 1.02 µM
IC50 [28]: > 1.02 µM
IC50 [29]: > 1.02 µM
IC50 [30]: > 1.02 µM
IC50 [31]: > 1.02 µM
IC50 [32]: > 1.02 µM
IC50 [33]: > 1.02 µM
IC50 [34]: > 1.02 µM
IC50 [35]: > 1.02 µM
IC50 [36]: > 1.02 µM
IC50 [37]: 0.86 µM
IC50 [8]: > 1.02 µM
IC50 [38]: > 1.02 µM
IC50 [39]: > 1.02 µM
IC50 [40]: > 1.02 µM
IC50 [9]: > 1.02 µM
IC50 [10]: 0.0467 µM
IC50 [11]: 0.196 µM
IC50 [41]: > 1.02 µM
IC50 [42]: > 1.02 µM
IC50 [43]: > 1.02 µM
IC50 [44]: > 1.02 µM
IC50 [12]: > 1.02 µM
IC50 [45]: > 1.02 µM
IC50 [13]: 0.297 µM
